pIC50: −log10 of the molar value.
Experiments:
[1] = biological target: T1, Myeloperoxidase (MPO) isolated from human polymorphonuclear leukocytes (Homo sapiens, UniProt P05164); details: guaiacol substrate, reference data; cited from earlier work
T1 construct: Myeloperoxidase (MPO) isolated from human polymorphonuclear leukocytes; purchased Calbiochem 475911; host or cells: human polymorphonuclear leukocytes (natural source)

TGF-β1 [2] = test: TGF-β1 levels by microdialysis in MCAO rats; type: in vivo; details: FIG. 6
mice = test: In vivo toxicity study in mice; details: for Survival Rate After 5 days (%): injected
Text: The in vivo toxicological effect of NAALADase inhibition has been examined in mice. […] Representative disclosure may be found in U.S. Pat. Nos. 5,672,592, 5,795,877, 5,863,536 and 5,880,112, and allowed U.S. patent applications Ser. Nos. 08/825,997, 08/833,628, 08/835,572 and 08/842,360, for which the issue fees have been paid, the entire contents of which patents and applications are herein incorporated by reference.
The mice were observed two times per day for 5 consecutive days.

TGF-β1 [3] = test: TGF-β1 concentration in ischemic cell cultures; type: cell-based; details: added to ischemic cultures (20-minute ischemia)
Text: (§1) The compounds of the invention were used to produce a neuroprotective effect in both in vitro and in vivo cell culture models of stroke.

TGF-β2 = TGF-β2 concentration in ischemic cell cultures; type: cell-based; details: added to ischemic cultures (20-minute ischemia)
Text: as §1

ischemic cultures = test: Neuroprotection in ischemic cell culture model of stroke with neutralizing antibodies; type: cell-based; details: for neuroprotective effect in presence of FGF antibody: FGF neutralizing antibody added; for neuroprotective effect in presence of TGF-β neutralizing antibodies: TGF-β neutralizing antibodies added
Experimental: as §1
TGF-β neutralizing antibodies were then added to determine if the neuroprotective effect would be blocked. The neuroprotective effect of 2-(phosphonomethyl)-pentanedioic acid was blocked by TGF-βs neutralizing bodies in this cell culture model. However, when other growth factor antibodies, such as FGF antibody, were added, the neuroprotective effect of 2-(phosphonomethyl)-pentanedioic acid was not reversed in culture.

[4] = system: middle cerebral artery occlusion (MCAO) in rats; test: Neuroprotection following middle cerebral artery occlusion (MCAO) in rats; type: in vivo
Text: The effect of TGF-β neutralizing antibodies on the neuroprotection afforded by 2-(phosphonomethyl)-pentanedioic acid following middle cerebral artery occlusion (MCAO) in rats was also studied to give a more relevant in vivo model of stroke.
Thus, it was appreciated that the regulation of TGF-βs may have implications, not only in its utility in stroke, but also in other neurological and psychiatric diseases. In addition, this mechanism may have implications in myelination, prostate cancer, inflammation, diabetes, and angiogenesis.

[5] = listed as 2-(phosphonomethyl)-pentanedioic acid

T1 sequence (P05164 279-745 limits assumed): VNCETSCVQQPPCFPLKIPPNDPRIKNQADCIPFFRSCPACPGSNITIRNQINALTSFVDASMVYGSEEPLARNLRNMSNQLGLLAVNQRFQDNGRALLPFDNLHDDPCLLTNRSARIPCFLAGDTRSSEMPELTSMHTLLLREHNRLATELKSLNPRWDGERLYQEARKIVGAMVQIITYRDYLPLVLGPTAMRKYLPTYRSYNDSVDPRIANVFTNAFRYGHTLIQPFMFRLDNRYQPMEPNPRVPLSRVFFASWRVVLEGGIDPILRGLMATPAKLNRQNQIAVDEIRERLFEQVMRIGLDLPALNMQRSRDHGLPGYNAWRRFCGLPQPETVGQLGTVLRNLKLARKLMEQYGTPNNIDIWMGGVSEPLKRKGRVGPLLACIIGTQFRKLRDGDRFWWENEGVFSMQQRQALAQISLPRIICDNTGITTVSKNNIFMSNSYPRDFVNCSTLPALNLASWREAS
T1 sequence (P05164 165-273 limits assumed): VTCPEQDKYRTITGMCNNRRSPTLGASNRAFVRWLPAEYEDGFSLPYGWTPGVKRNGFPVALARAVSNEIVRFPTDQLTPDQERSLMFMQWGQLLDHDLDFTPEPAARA

Compound	pIC50 [1]	TGF-β1 during occlusion and reperfusion (TGF-β1 [2])	Survival Rate After 5 days (%) (mice; dose 1 mg/kg)	Survival Rate After 5 days (%) (mice; dose 5 mg/kg)	Survival Rate After 5 days (%) (mice; dose 10 mg/kg)	Survival Rate After 5 days (%) (mice; dose 30 mg/kg)	Survival Rate After 5 days (%) (mice; dose 100 mg/kg)	Survival Rate After 5 days (%) (mice; dose 300 mg/kg)	Survival Rate After 5 days (%) (mice; dose 500 mg/kg)	toxicological effect in vivo (mice; observed for 5 days)	level of TGF-β1 (TGF-β1 [3])	level of TGF-β2 (TGF-β2)	neuroprotective effect in presence of FGF antibody (ischemic cultures; [5])	neuroprotective effect in presence of FGF antibody (ischemic cultures; listed as compound 3)	neuroprotective effect in presence of TGF-β neutralizing antibodies (ischemic cultures; [5])	neuroprotective effect in presence of TGF-β neutralizing antibodies (ischemic cultures; listed as compound 3)	neuroprotection ([4]; MCAO rats)	neuroprotective effect after TGF-β neutralizing antibodies ([4]; MCAO rats pre-treated with TGF-β neutralizing antibodies, FIG. 5)
CC(Cc1ccc(O)c(O)c1)C(C)Cc1ccc(O)c(O)c1 (stereo not drawn) [NDGA (Nordihydroguaretic Acid), Nordihydroguaretic Acid]	6.00																	
O=C(O)CCC(CP(=O)(O)O)C(=O)O (stereo not drawn) [Compound 3, 2-(phosphonomethyl)-pentanedioic acid]		significant rise	100%	100%	100%	100%	100%	100%	66.7%	non-toxic	increased significantly	increased significantly	not reversed	non-reversal	blocked	reversal	provided neuroprotection	significantly attenuated

Reference: US20030017965A1, “Methods for treating certain diseases using naaladase inhibitors” (priority 1998, published 2003)
